The test system of one data set is Female KM mice. Description: In vivo toxicity. Also on record: species or system Chinese Kun Ming (KM) mice. The settings on record: intraperitoneal injection, 3, 6, 30 or 60 mg per kg of body weight, 10/group. On the procedure: The in vivo toxicity of the peptide was also evaluated. Female KM mice (weighing 20 to 25 g) were injected intraperitoneally with 0.1 ml saline and 3, 6, 30, and 60 mg peptide per kg of body weight. The animals (10/group) were directly inspected for adverse effects, such as weight loss, piloerection, motility and mortality for 7 days thereafter. All mice were allowed free water and a maintenance diet in a 12-hour light/dark cycle. All cages contained wood shavings and bedding. The experiment was carried out in strict accordance with the recommendations of the Guide for the Care and Use of Laboratory Animals of Northeast Agricultural University, and the study protocol was approved by Northeast Agricultural University Institutional Animal Care and Use Committee. The mice were monitored for a week and no mice died during the experiment.

The next data set has as its system E. coli 25922. Description: microbe, parasite or virus in culture. The format is cell-based, Escherichia coli. On the procedure: (§1) Minimal inhibitory concentration (MIC) assays were performed as described previously. Briefly, after incubation overnight in Mueller-Hinton (MH) broth at 37°C, the bacteria were grown to exponential growth phase and diluted to approximately 1×10^5 CFU/ml. The peptides were dissolved in 0.2% bovine serum albumin (BSA) containing 0.01% (v/v) acetic acid, and they were then added to each well of a 96-well plates at a final concentration ranging from 0.25 to 128 µM. Each well contained a total volume of 100 µL (50 µL of inoculums and 50 µL of peptide-containing solution). The MICs were determined as the lowest concentration of peptide that prevented visible turbidity by visual inspection after incubation at 37°C for 16–18 h. Independent experiments were carried out at least three times. Uninoculated MH broth was used as a negative control and cultures without added peptides served as the positive control. Minimal bactericidal concentration (MBC) assay was performed following MIC assay. At the end of MIC assay 10 µL aliquots of the medium were taken from peptide-containing wells with no visible bacterial growth. These are plated on MH agar, incubated for 18 h to allow colony growth. The MBC was defined as the lowest peptide concentration resulting in no bacterial growth in the media. Each assay was performed at least three times.

Data set [1] deals with P. auruginosa LCCI (ciprofloxacin-resistant strain). Description: microbe, parasite or virus in culture. On the procedure: as §1
(§2) The antimicrobial activity of the RI16 and mutant peptides against Gram-negative and Gram-positive bacteria were determined.

Data set [2] concerns P. auruginosa LCGE (gentamincin-resistant strain). The data set is described as follows: microbe, parasite or virus in culture. How it is done: as §1, §2
Data set [3] deals with P. auruginosa LCCE (ceftazidime-resistant strain). Description: microbe, parasite or virus in culture. How it is done:
as §1, §2

For a further data set, the system named is S. aureus 29213. Description: microbe, parasite or virus in culture. The format is cell-based, Staphylococcus aureus. On the procedure:
as §1

The next data set concerns S. typhimurium 7731. The data set is described as follows: microbe, parasite or virus in culture. The format is cell-based, Salmonella typhimurium. On the procedure:
as §1

For another data set, the system named is P. aeruginosa 27853. The data set is described as follows: microbe, parasite or virus in culture. Format: cell-based, Pseudomonas aeruginosa. On the procedure:
as §1

The test system of another data set is P. auruginosa 21630. Description: microbe, parasite or virus in culture. Format: cell-based, Pseudomonas aeruginosa. On the procedure:
as §1

For the next data set, the system named is P. auruginosa LC. Description: microbe, parasite or virus in culture. The format is cell-based, Pseudomonas aeruginosa. On the procedure: as §1
For a further data set, the system named is P. auruginosa 21625. The data set is described as follows: microbe, parasite or virus in culture. Format: cell-based, Pseudomonas aeruginosa. How it is done: as §1
A further data set relates to P. auruginosa 10419. The data set is described as follows: microbe, parasite or virus in culture. The format is cell-based, Pseudomonas aeruginosa. On the procedure: as §1
A further data set deals with S. epidermidis 12228. Description: microbe, parasite or virus in culture. Format: cell-based, Staphyfococcus epidermidis. On the procedure:
as §1

Data set [4] concerns P. aeruginosa ATCC27853 biofilms. The data set is described as follows: Biofilm biomass assay and FE-SEM imaging. Format: cell-based, Pseudomonas aeruginosa. On the procedure:
A static abiotic solid surface assay was used to analyze biofilm formation as described before, with minor modification. Briefly, overnight cultures of P. aeruginosa ATCC27853 were diluted 1∶100 in fresh medium, added (500 µL) to wells of 12-well culture plates, and grown for 24 h at 37°C. Planktonic cells and loosely attached cells were removed, and wells were then refilled with 500 µL of fresh broth in the absence or presence of different concentrations of peptides. After incubation the biofilms were stained with 0.1% (w/v) crystal violet. Ethanol (95%, v/v) was added to each well, and absorbance was measured at 600 nm. The experiments were done at least three times in duplicate, and the data was expressed as mean ± standard deviations.
For microscopic observation of the biofilm, sterilized coverslips were placed at the bottom of a 12-well plate. After incubation, cells were fixed with 2.5% glutaraldehyde overnight. The samples were then dehydrated through a graded series of ethanol (50%, 70%, 90%, and 100%), followed by critical–point drying, gold sputtering, and examination using an FE-SEM (Hitachi, Japan).

The values that follow come from paper PMC4262413, “Importance of Tryptophan in Transforming an Amphipathic Peptide into a Pseudomonas aeruginosa-Targeted Antimicrobial Peptide” (PLoS ONE, 2014).

In brackets after ≈: the same amount, converted by molar mass. Residues, ends and D or L forms follow the SMILES beside them.

For `CC[C@H](C)[C@H](NC(=O)[C@H](CCCCN)NC(=O)[C@H](CCCCN)NC(=O)[C@H](CC(C)C)NC(=O)[C@H](CCCNC(=N)N)NC(=O)[C@H](CCCCN)NC(=O)[C@H](CCCNC(=N)N)NC(=O)[C@H](Cc1c[nH]c2ccccc12)NC(=O)[C@H](CCCCN)NC(=O)[C@H](CCCCN)NC(=O)[C@H](CCCNC(=N)N)NC(=O)[C@H](CC(C)C)NC(=O)[C@H](CCCNC(=N)N)NC(=O)[C@H](CCCNC(=N)N)NC(=O)[C@H](Cc1ccccc1)NC(=O)[C@@H](N)CCCNC(=N)N)C(N)=O` [T9W] (H-RFRRLRKKWRKRLKKI-NH2), in the data set on Female KM mice (7 days, data not shown), the “Signs of toxicity (weight loss, piloerection, motility)” value is reported as “no signs of toxicity”. Besides, the Survival result in the data set with Female KM mice (at least 7 days) is recorded as “all survived”. Further, the MIC against E. coli 25922 (25922) worked out at 64 µM (≈ 145 µg/mL); in data set [1], 2 µM (≈ 4.54 µg/mL); in data set [2], 4 µM (≈ 9.07 µg/mL); in data set [3], 4 µM (≈ 9.07 µg/mL); in the data set with S. aureus 29213 (29213), 128 µM (≈ 290 µg/mL); in the data set with S. typhimurium 7731 (7731), 128 µM (≈ 290 µg/mL). For the same compound, the MIC with P. aeruginosa 27853 (27853) amounted to 2 µM (≈ 4.54 µg/mL); against P. auruginosa 21630, 4 µM (≈ 9.07 µg/mL); with P. auruginosa LC, 1 µM (≈ 2.27 µg/mL); in the data set with P. auruginosa 21625 it was 4 µM (≈ 9.07 µg/mL); against P. auruginosa 10419, 4 µM (≈ 9.07 µg/mL); against S. epidermidis 12228 (12228), 64 µM (≈ 145 µg/mL). Further, the MBC against E. coli 25922 (25922, 18 h) is on record as >128 µM; in data set [1] (18 h), 4 µM (≈ 9.07 µg/mL); in [2] (18 h) it was 8 µM (≈ 18.1 µg/mL); in [3] (18 h), 8 µM (≈ 18.1 µg/mL); in the data set on S. aureus 29213 (29213, 18 h), >128 µM; with S. typhimurium 7731 (7731, 18 h), >128 µM. The MBC with P. aeruginosa 27853 (27853, 18 h) is 2 µM (≈ 4.54 µg/mL); in the data set with P. auruginosa 21630 (18 h), 4 µM (≈ 9.07 µg/mL); in the data set with P. auruginosa LC (18 h) it was 2 µM (≈ 4.54 µg/mL); with P. auruginosa 21625 (18 h), 4 µM (≈ 9.07 µg/mL); with P. auruginosa 10419 (18 h), 4 µM (≈ 9.07 µg/mL); with S. epidermidis 12228 (12228, 18 h) it was >128 µM.
In the case of “LL37: the only host defense peptide encoded by the human cathelicidin gene, which eliminates bacteria by targeting membranes (LLGDFFRKSKEKIGKEFKRIVQRIKDFLRNLVPRTES; Antibacterial peptide LL-37; UniProt P49913 134-170, looked up)”, in data set [4] (P. aeruginosa 27853, 24 h treatment, various concentrations, crystal violet, absorbance 600 nm, relative to untreated control, Fig. 6A), the “Biofilm biomass of pre-formed biofilms” value is “reduced”. The “Cell densities in the biofilms (FE-SEM)” value in data set [4] (P. aeruginosa 27853 biofilms, peptides at 4×MIC, Fig. 6B) is “significantly reduced”.
